Results published in US9708314B2, “Heterocyclic amide compound” (NISSAN CHEMICAL INDUSTRIES, LTD., priority 2013, dated 2017).

How the values were obtained:
Type in all cases: in vivo
Zea mays = experiment: Test Example 4: effect on crop by application to foliage (diluvial soil, plastic box); conditions: foliage application, 320 g/ha
Method in brief: (§1)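 Emulsion-formulated compound, diluted to a predetermined g/ha dose, applied by small sprayer to leaves and stems of 14-day-old seedlings grown in sterilized diluvial soil. Effect rated on 0–5 herbicidal-ratio scale three weeks on.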

[1] = test system: Beta vulgaris ssp. vulgaris; experiment: as above; conditions: foliage application, 320 g/ha
Method in brief: as §1

[2] = test system: directly sowed Oryza sativa; experiment: as above; conditions: foliage application, 320 g/ha
Method in brief: as §1

Glycine max = experiment: as above; conditions: foliage application, 320 g/ha
Method in brief: as §1

Brassica campestris L. = experiment: as above; conditions: foliage application, 320 g/ha
Method in brief: as §1

Triticum aestivum = experiment: as above; conditions: foliage application, 320 g/ha
Method in brief: as §1

[3] = test system: Echinochloa oryzacola Vasing.; experiment: Test Example 1: herbicidal activity, application before weed generation in submerged conditions; conditions: Application herbicide amount 320 g/ha; Seventeenth Table
Method in brief: (§2)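 Rating, on a six-step scale from almost no effect (0) to almost completely withered (5), was made three weeks after pre-emergence treatment. Treatment was surface application to flooded pots at g/ha rates, with plants kept at 25° C. to 30° C.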

Scirpus juncoides = experiment: as above; conditions: Application herbicide amount 320 g/ha; Seventeenth Table
Method in brief: as §2

Monochoria vaginalis = experiment: as above; conditions: Application herbicide amount 320 g/ha; Seventeenth Table
Method in brief: as §2

Row | Structure (SMILES) | b (Zea mays) effect on crop grade (Zea mays) | f (Beta vulgaris ssp. vulgaris) effect on crop grade [1] | d (directly sowed Oryza sativa) effect on crop grade [2] | c (Glycine max) effect on crop grade (Glycine max) | g (Brassica campestris L.) effect on crop grade (Brassica campestris L.) | e (Triticum aestivum) effect on crop grade (Triticum aestivum) | A: Echinochloa oryzicola Vasing. (herbicidal effect grade) [3] | B: Scirpus juncoides (herbicidal effect grade) (Scirpus juncoides) | C: Monochoria vaginalis (herbicidal effect grade) (Monochoria vaginalis)
1 | Cn1nnnc1NC(=O)c1ccc(C(F)(F)F)n2c(CS(C)(=O)=O)nnc12 [2-034] | 5 (Herbicidal ratio of 90% or more (almost completely withered)) | 5 (Herbicidal ratio of 90% or more (almost completely withered)) | 5 (Herbicidal ratio of 90% or more (almost completely withered)) | 3 (Herbicidal ratio of 40% or more and less than 70%) | 5 (Herbicidal ratio of 90% or more (almost completely withered)) | 5 (Herbicidal ratio of 90% or more (almost completely withered)) | 5 (Herbicidal ratio of 90% or more (almost completely withered)) | 4 (Herbicidal ratio of 70% or more and less than 90%) | 4 (Herbicidal ratio of 70% or more and less than 90%)
2 | Cn1nnnc1NC(=O)c1ccc(C(F)(F)F)n2c(C[S+]([O-])CC(F)(F)F)nnc12 (stereo not drawn) [2-035] | 5 (Herbicidal ratio of 90% or more (almost completely withered)) | 5 (Herbicidal ratio of 90% or more (almost completely withered)) | 4 (Herbicidal ratio of 70% or more and less than 90%) | 2 (Herbicidal ratio of 20% or more and less than 40%) | 5 (Herbicidal ratio of 90% or more (almost completely withered)) | 4 (Herbicidal ratio of 70% or more and less than 90%) | 4 (Herbicidal ratio of 70% or more and less than 90%) | 3 (Herbicidal ratio of 40% or more and less than 70%) | 3 (Herbicidal ratio of 40% or more and less than 70%)
3 | Cn1nnnc1NC(=O)c1ccc(C(F)(F)F)n2c(S(C)(=O)=O)nnc12 [2-037] | 5 (Herbicidal ratio of 90% or more (almost completely withered)) | 5 (Herbicidal ratio of 90% or more (almost completely withered)) | 4 (Herbicidal ratio of 70% or more and less than 90%) | 5 (Herbicidal ratio of 90% or more (almost completely withered)) | 5 (Herbicidal ratio of 90% or more (almost completely withered)) | 5 (Herbicidal ratio of 90% or more (almost completely withered)) | 5 (Herbicidal ratio of 90% or more (almost completely withered)) | 5 (Herbicidal ratio of 90% or more (almost completely withered)) | 5 (Herbicidal ratio of 90% or more (almost completely withered))
4 | CCS(=O)(=O)c1nnc2c(C(=O)Nc3nnnn3C)ccc(C(F)(F)F)n12 [2-038] | 5 (Herbicidal ratio of 90% or more (almost completely withered)) | 5 (Herbicidal ratio of 90% or more (almost completely withered)) | 5 (Herbicidal ratio of 90% or more (almost completely withered)) | 5 (Herbicidal ratio of 90% or more (almost completely withered)) | 5 (Herbicidal ratio of 90% or more (almost completely withered)) | 5 (Herbicidal ratio of 90% or more (almost completely withered)) | 5 (Herbicidal ratio of 90% or more (almost completely withered)) | 5 (Herbicidal ratio of 90% or more (almost completely withered)) | 5 (Herbicidal ratio of 90% or more (almost completely withered))
5 | CC(C)c1nnc2c(C(=S)Nc3nnnn3C)ccc(C(F)(F)F)n12 [2-039, 3-Isopropyl-N-(1-methyl-1H-tetrazol-5-yl)-5-(trifluoromethyl)-[1,2,4]triazolo[4,3-a]pyridine-8-carbothioamide] | 4 (Herbicidal ratio of 70% or more and less than 90%) | 5 (Herbicidal ratio of 90% or more (almost completely withered)) | 4 (Herbicidal ratio of 70% or more and less than 90%) | 3 (Herbicidal ratio of 40% or more and less than 70%) | 5 (Herbicidal ratio of 90% or more (almost completely withered)) | 3 (Herbicidal ratio of 40% or more and less than 70%) | 5 (Herbicidal ratio of 90% or more (almost completely withered)) | 5 (Herbicidal ratio of 90% or more (almost completely withered)) | 5 (Herbicidal ratio of 90% or more (almost completely withered))
6 | CCOC(=O)Cc1nnc2c(C(=O)Nc3nnnn3C)ccc(C(F)(F)F)n12 [2-040] | 4 (Herbicidal ratio of 70% or more and less than 90%) | 5 (Herbicidal ratio of 90% or more (almost completely withered)) | 4 (Herbicidal ratio of 70% or more and less than 90%) | 1 (Herbicidal ratio of 5% or more and less than 20%) | 3 (Herbicidal ratio of 40% or more and less than 70%) | 2 (Herbicidal ratio of 20% or more and less than 40%) | 4 (Herbicidal ratio of 70% or more and less than 90%) | 4 (Herbicidal ratio of 70% or more and less than 90%) | 4 (Herbicidal ratio of 70% or more and less than 90%)
7 | COCCn1nnnc1NC(=O)c1ccc(C(F)(F)F)n2c(C(C)C)nnc12 [2-041] | 2 (Herbicidal ratio of 20% or more and less than 40%) | 5 (Herbicidal ratio of 90% or more (almost completely withered)) | 4 (Herbicidal ratio of 70% or more and less than 90%) | 0 (Herbicidal ratio of 5% or less (almost no effect)) | 4 (Herbicidal ratio of 70% or more and less than 90%) | 3 (Herbicidal ratio of 40% or more and less than 70%) | 5 (Herbicidal ratio of 90% or more (almost completely withered)) | 5 (Herbicidal ratio of 90% or more (almost completely withered)) | 4 (Herbicidal ratio of 70% or more and less than 90%)
8 | Cc1ccc(-c2nnc3c(C(=O)Nc4nnnn4C)ccc(C(F)(F)F)n23)cc1 [2-042] | 4 (Herbicidal ratio of 70% or more and less than 90%) | 4 (Herbicidal ratio of 70% or more and less than 90%) | 3 (Herbicidal ratio of 40% or more and less than 70%) | 0 (Herbicidal ratio of 5% or less (almost no effect)) | 2 (Herbicidal ratio of 20% or more and less than 40%) | 0 (Herbicidal ratio of 5% or less (almost no effect)) | 5 (Herbicidal ratio of 90% or more (almost completely withered)) | 4 (Herbicidal ratio of 70% or more and less than 90%) | 4 (Herbicidal ratio of 70% or more and less than 90%)
9 | Cn1nnnc1NC(=O)c1ccc(C(F)(F)F)n2c(-c3ccc(F)cc3)nnc12 [2-043] | 3 (Herbicidal ratio of 40% or more and less than 70%) | 5 (Herbicidal ratio of 90% or more (almost completely withered)) | 4 (Herbicidal ratio of 70% or more and less than 90%) | 1 (Herbicidal ratio of 5% or more and less than 20%) | 4 (Herbicidal ratio of 70% or more and less than 90%) | 3 (Herbicidal ratio of 40% or more and less than 70%) | 5 (Herbicidal ratio of 90% or more (almost completely withered)) | 5 (Herbicidal ratio of 90% or more (almost completely withered)) | 5 (Herbicidal ratio of 90% or more (almost completely withered))
10 | COc1cccc(-c2nnc3c(C(=O)Nc4nnnn4C)ccc(C(F)(F)F)n23)c1 [2-044] | 3 (Herbicidal ratio of 40% or more and less than 70%) | 5 (Herbicidal ratio of 90% or more (almost completely withered)) | 4 (Herbicidal ratio of 70% or more and less than 90%) | 2 (Herbicidal ratio of 20% or more and less than 40%) | 3 (Herbicidal ratio of 40% or more and less than 70%) | 1 (Herbicidal ratio of 5% or more and less than 20%) | 5 (Herbicidal ratio of 90% or more (almost completely withered)) | 5 (Herbicidal ratio of 90% or more (almost completely withered)) | 5 (Herbicidal ratio of 90% or more (almost completely withered))
